IC50 data for 30 compounds are collected here from patent publication US12162858B2, “Quinoline derivatives as inhibitors of AXL/MER RTK and CSF1R” (QURIENT CO., LTD., priority 2018, dated 2024).

Structures are written as SMILES. pIC50: −log10 of the molar value.

Chain of CSF1R (P07333 20-972): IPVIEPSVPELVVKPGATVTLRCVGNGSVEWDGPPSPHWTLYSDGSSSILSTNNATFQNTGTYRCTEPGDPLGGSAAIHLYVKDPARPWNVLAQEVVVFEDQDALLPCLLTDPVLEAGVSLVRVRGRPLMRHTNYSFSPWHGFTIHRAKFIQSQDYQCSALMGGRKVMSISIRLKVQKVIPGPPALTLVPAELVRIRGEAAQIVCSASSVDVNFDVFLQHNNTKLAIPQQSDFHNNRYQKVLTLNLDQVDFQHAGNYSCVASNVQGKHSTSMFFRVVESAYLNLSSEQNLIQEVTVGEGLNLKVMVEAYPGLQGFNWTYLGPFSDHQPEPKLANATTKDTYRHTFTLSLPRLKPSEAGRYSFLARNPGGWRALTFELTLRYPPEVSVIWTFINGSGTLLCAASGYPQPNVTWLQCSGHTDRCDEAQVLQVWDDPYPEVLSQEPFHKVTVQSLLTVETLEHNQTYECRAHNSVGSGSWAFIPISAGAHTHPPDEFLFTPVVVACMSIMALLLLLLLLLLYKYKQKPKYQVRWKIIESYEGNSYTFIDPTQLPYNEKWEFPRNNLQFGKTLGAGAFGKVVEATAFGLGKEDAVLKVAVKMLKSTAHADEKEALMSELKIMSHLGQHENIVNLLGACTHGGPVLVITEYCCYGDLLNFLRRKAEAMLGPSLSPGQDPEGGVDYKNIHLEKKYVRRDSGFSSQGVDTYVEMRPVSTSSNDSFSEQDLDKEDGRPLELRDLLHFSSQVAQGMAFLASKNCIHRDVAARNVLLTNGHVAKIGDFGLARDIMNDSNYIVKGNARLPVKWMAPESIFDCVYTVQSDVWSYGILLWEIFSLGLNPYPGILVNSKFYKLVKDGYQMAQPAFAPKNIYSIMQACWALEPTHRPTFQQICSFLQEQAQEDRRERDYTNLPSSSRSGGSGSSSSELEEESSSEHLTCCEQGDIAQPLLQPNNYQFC

This assay concerns the target CSF1R (Homo sapiens, UniProt P07333). The experiment in a line: Cellular CSF1R inhibition ELISA (p-CSF1R, M-CSF-induced) using THP-1 cells. In kind it is cell-based. More on the design: THP-1 cells act as a model for human monocytes; endogenous in cells; host or cells: THP-1. An excerpt:
The normal proto-oncogene c-fms encodes the macrophage growth factor (M-CSF, also known as CSF1) receptor involved in growth, survival, and differentiation along the monocyte-macrophage lineage. THP-1 cells act as a model for human monocytes. It confirms that an increased phosphorylation of CSF1R (p-CSF1R) can be observed, when induced by CSF1R ligand, CSF1.
The THP-1 cells should be maintained from 5×10^5 to 1×10^6 cells/ml in the cell culture flask. After centrifugation, the supernatant is aspirated. The cell pellet is re-suspended with pre-warmed growth medium (RPMI1640, 10% FBS, 0.05 mM 2-Mercaptoethanol) and cells are separated by pipetting 6 times up and down with a 10 ml serological pipette. The cell suspension has to be diluted to a final concentration of 2×10^5 cells per 80 μl with pre-warmed growth medium. 80 μl of cell suspension is added to all wells of plates. Cell-plates are incubated at 37° C./5% CO2. Dissolve compound in 100% DMSO to make 10 mM stock solutions (Aliquots stored in the Nitrogen Cabinet). Dilute 10 mM compounds solutions for 2-fold in 100% DMSO to get 5 mM solutions (10 μl+10 μl DMSO), and then make a 3-fold serial dilution (10 μl+20 μl DMSO) for 10 doses. For reference compounds: Dilute 10 mM compounds solutions for 20-fold in 100% DMSO to get 0.5 mM solutions (2 μl+38 μl DMSO), and then make a 3-fold serial dilution (10 μl+20 μl DMSO) for 10 doses. Transfer 2 μl diluted compounds to 198 μl medium to get solution of 50 μM concentration at top point for compounds and 5 μM for reference compounds. Then transfer 20 μl cpd solution into assay plate (Duplicate wells). The plate is incubated at 37° C./5% CO2 for 24 h. The final concentration of DMSO in all wells is […]. Reconstitute human M-CSF at 50 μg/ml in sterile water. (Aliquots stored in −80° C.). 1:1000 dilute human M-CSF by fresh medium to 50 ng/ml. After 24 h compounds treatment, transfer 25 μl diluted human M-CSF (50 ng/ml) to cell plate according to the plate map. The final concentration of human M-CSF in all wells is 10 ng/ml.
The plates is incubated at 37° C./5% CO2 for 5 min. In the beginning the appropriate amount of lysis buffer complete (100 μL/well) is prepared and stored on ice. After 5 min human M-CSF stimulation, wash plates once with 300 μL ice cold PBS. Then 100 μl lysis buffer is added to each well. The plate is shacked for 40 min at 4° C. Plates can now be stored at −20° C. After equilibrate the micro-well strips at room temperature, break off the required number of micro-wells. Place the micro-wells in the strip holder. Unused micro-wells must be resealed and stored at 4° C. immediately. Add 90 μl of cell lysate to the appropriate well. Seal with tape and press firmly onto top of micro-wells. Incubate the plate for 2 h at 37° C. Gently remove the tape and wash wells 4 times with 1× Wash Buffer, 200 μl each time for each well. Add 100 μl of reconstituted Detection Antibody (green color) to each well. Seal with tape and incubate the plate at 37° C. for 1 h. Repeat wash procedure. Add 100 μl of reconstituted HRP-Linked secondary antibody to each well. Seal with tape and incubate the plate for 30 min at 37° C. Repeat wash procedure. Add 100 μl of TMB Substrate to each well. Seal with tape and incubate the plate for 10 min at 37° C. or 30 min at 25° C. Calculations and Formulas: The following calculations and formulas are used for data analysis using XL Fit software: The curve fitting was made using the Sigmoidal Dose-Response Model (Fit model, 205).
Broadly, the pIC50 is −log10 of the IC50, conventionally taken in molar units. `COc1cc2nccc(Oc3ccc(NC(=O)c4nn(C5CCCC5)cc4OCC(F)(F)F)cn3)c2cc1OC` [Compound 131] gave a pIC50 of at most 6.00.
For `COc1cc2nccc(Oc3ccc(NC(=O)c4nn(C5CCN(C)C5)cc4OCC(F)(F)F)nn3)c2cc1OC` (stereo not drawn) [Compound 157] the value was 6.00 to 6.30; for `COc1cc2nccc(Oc3ccc(NC(=O)c4nn(C5CC5)cc4OC(C)C)nc3)c2cc1OC` [Compound 108], over 6.30; for `COc1cc2nccc(Oc3ccc(NC(=O)c4nn(CCOC5CC5)cc4OCC(F)(F)F)cn3)c2cc1OC` [Compound 130], at most 6.00.
As for `COc1cc2nccc(Oc3ccc(NC(=O)c4nn(C5CC5)cc4OCC4COC4)nn3)c2cc1OC` [Compound 161], the figure is at most 6.00; as for `COc1cc2nccc(Oc3ccc(NC(=O)c4nn(CC(C)C)cc4OCC(F)(F)F)nn3)c2cc1OC` [Compound 124], 6.00 to 6.30.
Regarding `CCCn1cc(OCCOC)c(C(=O)Nc2ccc(Oc3ccnc4cc(OC)c(OC)cc34)cn2)n1` [Compound 105], the pIC50 was over 6.30.
As for `COc1cc2nccc(Oc3ccc(NC(=O)c4nn(C5CC5)cc4OCC(F)(F)F)nn3)c2cc1OC` [Compound 112], the figure is 6.00 to 6.30.
As for `COc1cc2nccc(Oc3ccc(NC(=O)c4nn(CCOC5CC5)cc4OCC(F)(F)F)nc3)c2cc1OC` [Compound 153], the figure is over 6.30; as for `COc1cc2nccc(Oc3ccc(NC(=O)c4nn(C5CC5)cc4NCCC(F)(F)F)nn3)c2cc1OC` [Compound 146], at most 6.00.
Regarding `COc1cc2nccc(Oc3ccc(NC(=O)c4nn(CCN(C)C)cc4OCC(F)(F)F)nc3)c2cc1OC` [Compound 9], the pIC50 is over 6.30.
With `CNCCn1cc(OCC(F)(F)F)c(C(=O)Nc2ccc(Oc3ccnc4cc(OC)c(OC)cc34)cn2)n1` [Compound 11], the pIC50 is 6.00 to 6.30.
In turn, `CNCCn1cc(OCC(F)(F)F)c(C(=O)Nc2ccc(Oc3ccnc4cc(OC)c(OC)cc34)nc2)n1` [Compound 137] showed a pIC50 of at most 6.00.
As for `COCCn1cc(OCC(F)(F)F)c(C(=O)Nc2ccc(Oc3ccnc4cc(OC)c(OC)cc34)nn2)n1` [Compound 126], the negative logarithm of the IC50 (pIC50) was at most 6.00.
As for `COCCn1cc(OCC(F)(F)F)c(C(=O)Nc2ccc(Oc3ccnc4cc(OC)c(OC)cc34)nc2)n1` [Compound 104], the figure is at most 6.00; as for `COc1cc2nccc(Oc3ccc(NC(=O)c4nn(CC(C)O)cc4OCC(F)(F)F)cn3)c2cc1OC` (stereo not drawn) [Compound 136], at most 6.00.
`COc1cc2nccc(Oc3ccc(NC(=O)c4nn(C5CCN(C)C5)cc4OCC(F)(F)F)cc3)c2cc1OC` (stereo not drawn) [Compound 100]: the pIC50 was at most 6.00.
In turn, `COc1cc2nccc(Oc3ccc(NC(=O)c4nn(C5CC5)cc4OCCF)nn3)c2cc1OC` [Compound 113] had a pIC50 of over 6.30.
Consider `COc1cc2nccc(Oc3ccc(NC(=O)c4n[nH]cc4OCC(F)(F)F)nc3)c2cc1OC` [Compound 16], for which the negative logarithm of the IC50 (pIC50) is over 6.30.
As for `COc1cc2nccc(Oc3ccc(NC(=O)c4nn(CCOC5CC5)cc4OCC(F)(F)F)cc3C)c2cc1OC` [Compound 117], the figure is over 6.30.
On to `CNCCn1cc(OCC(F)(F)F)c(C(=O)Nc2ccc(Oc3ccnc4cc(OC)c(OC)cc34)nn2)n1` [Compound 127], for which the negative logarithm of the IC50 (pIC50) is at most 6.00.
Take `COc1cc2nccc(Oc3ccc(NC(=O)c4nn(C5CC5)cc4OCC4CCC4)nc3)c2cc1OC` [Compound 111]: the negative logarithm of the IC50 (pIC50) is 6.00 to 6.30.
For `COc1cc2nccc(Oc3ccc(NC(=O)c4nn(CCOC5CC5)cc4OCC(F)(F)F)nn3)c2cc1OC` [Compound 120] the value was 6.00 to 6.30; for `CNCCOc1cn(C2CC2)nc1C(=O)Nc1ccc(Oc2ccnc3cc(OC)c(OC)cc23)nn1` [Compound 160], at most 6.00; for `CCn1cc(OCC2CCC2)c(C(=O)Nc2ccc(Oc3ccnc4cc(OC)c(OC)cc34)cn2)n1` [Compound 8], over 6.30.
As for `COc1cc2nccc(Oc3ccc(NC(=O)c4nn(C5CC5)cc4OCC(F)F)nc3)c2cc1OC` [Compound 109], the figure is over 6.30; as for `CCCn1cc(OCCN(C)C)c(C(=O)Nc2ccc(Oc3ccnc4cc(OC)c(OC)cc34)c(F)c2)n1` [Compound 165], at most 6.00.
Compound `COc1cc2nccc(Oc3ccc(NC(=O)c4nn(CC5COC5)cc4OCC(F)(F)F)cc3)c2cc1OC` [Compound 101] showed a negative-log IC50 (pIC50) of at most 6.00.
For `COc1cc2nccc(Oc3ccc(NC(=O)c4nn(CC5COC5)cc4OCC(F)(F)F)cn3)c2cc1OC` [Compound 134] the value was at most 6.00; for `CCCn1cc(NCCC(F)(F)F)c(C(=O)Nc2ccc(Oc3ccnc4cc(OC)c(OC)cc34)cn2)n1` [Compound 158], over 6.30.
